Structures can show the parent of a compound that is named as a salt. Where two headings read alike, the source gives them in different places.
System: Human Skeletal Cells (SKM)
Experiment: Protective effect on cell death induced by maitotoxin on human skeletal cells (SKM), WST-1 readout
Format: cell-based
Conditions: maitotoxin 24 h
Experimental: The principle of the test is the following: maitotoxin is a toxin which causes the opening of the calcium channels of cells. The resulting intra-cellular flow of calcium is at the origin of the death of the cell. During this process of cell death, a cysteine-dependent protease, calpain, is activated, and an abundance of free radicals is produced. The test consists of incubating the cells in the presence of the composition to be tested, in order to delay or inactivate cell death and thus determine the protective effect.
The myoblasts are seeded at 2500 cells per well in 96-well plates in a DMEM 10% FCS (foetal calf serum) culture medium supplemented with amphotericin B, human recombinant epidermal growth factor and dexamethasone. Three days after seeding, the cells have adhered to the base of the well, the differentiation of the cells to myotubes is induced by adding 100 μl of DMEM F12 medium containing 2% horse serum. After three more days, 100 μl of compound to be tested are placed at the bottom of the well. After incubation for one hour at 37° C. under an atmosphere of 5% CO2, the maitotoxin (MTX) (Wako, ref: 131-10731) is added to evaluate the protective effect (concentration-effect) of the compound to be tested on cell death.
After an incubation time of 24 h, the culture medium is replaced by a DMEM 10% FCS medium supplemented by WST-1. […] The cells are incubated for 1 hour in the presence of WST-1. Then the number of live cells is determined using a Perkin-Elmer Wallac Envision 2101 device by reading the absorbance at 450 nm. The concentration-effect of the products on the cell survival rate is then calculated.
The CE50 is deduced by linear regression: concentration with respect to the percentage of protection. The mathematical method used is the isobologram approach described in: “Drug synergism and dose-effect data analysis, Ronald J. Tallarida, Chapman & Hall/CRC, 2000”.

CC(=O)OC1OCC[C@@H]1NC(=O)[C@H](CC(C)C)NC(=O)c1ccc2c(c1)Nc1ccccc1S2 (stereo partly drawn) [(3S)-3-{[N-(10H-phenothiazin-2-ylcarbonyl)-L-leucyl]amino}tetrahydrofuran-2-yl acetate] was tested, and the EC50 (Homo sapiens, 24 h, read-out: EC50 μM After incubation for 24 h with the toxin, single substance (proportion 1), cell mortality rate induced by the toxin 97%) was 29.1 µM.

CC(C)C[C@H](NC(=N)c1ccc2c(c1)Nc1ccccc1S2)C(=O)N[C@H]1CCOC1O (stereo partly drawn) [Example 5, N^1-[(3S)-2-hydroxytetrahydrofuran-3-yl]-N^2-[imino(10H-phenothiazin-2-yl)methyl]-L-leucinamide hydroiodide] was tested, and the EC50 (Homo sapiens, 24 h, read-out: EC50 μM After incubation for 24 h with the toxin, single substance (proportion 1), cell mortality rate induced by the toxin 84%) was 6.26 µM.

CC(C)C[C@H](NC(=N)c1ccc2c(c1)Nc1ccccc1S2)C(=O)N[C@H]1CCOC1O (stereo partly drawn) [Example 7, N^1-[(3S)-2-hydroxytetrahydrofuran-3-yl]-N^2-[imino(10H-phenothiazin-2-yl)methyl]-L-leucinamide hydrochloride] showed an EC50 (Homo sapiens, 24 h, read-out: EC50 μM After incubation for 24 h with the toxin, single substance (proportion 1), cell mortality rate induced by the toxin 96%) of 5.92 µM.

For C[C@H]1C[C@@H]2[C@H]([C@@H](O)C[C@@]3(C)[C@H]2CC[C@]3(O)C(=O)CO)[C@@]2(C)C=CC(=O)C=C12 [α-methylprednisolone], the EC50 (single substance (proportion 1), cell mortality rate induced by the toxin 84%, read-out: EC50 μM After incubation for 24 h with the toxin) was 87.6 µM, the EC50 (single substance (proportion 1), cell mortality rate induced by the toxin 96%, read-out: EC50 μM After incubation for 24 h with the toxin) was 169 µM and the EC50 (single substance (proportion 1), cell mortality rate induced by the toxin 97%, read-out: EC50 μM After incubation for 24 h with the toxin) was 107 µM.
